Target: T1, Q-eTud34 (Drosophila melanogaster, UniProt Q9VE55)
T1 sequence (Q9VE55 959-1515): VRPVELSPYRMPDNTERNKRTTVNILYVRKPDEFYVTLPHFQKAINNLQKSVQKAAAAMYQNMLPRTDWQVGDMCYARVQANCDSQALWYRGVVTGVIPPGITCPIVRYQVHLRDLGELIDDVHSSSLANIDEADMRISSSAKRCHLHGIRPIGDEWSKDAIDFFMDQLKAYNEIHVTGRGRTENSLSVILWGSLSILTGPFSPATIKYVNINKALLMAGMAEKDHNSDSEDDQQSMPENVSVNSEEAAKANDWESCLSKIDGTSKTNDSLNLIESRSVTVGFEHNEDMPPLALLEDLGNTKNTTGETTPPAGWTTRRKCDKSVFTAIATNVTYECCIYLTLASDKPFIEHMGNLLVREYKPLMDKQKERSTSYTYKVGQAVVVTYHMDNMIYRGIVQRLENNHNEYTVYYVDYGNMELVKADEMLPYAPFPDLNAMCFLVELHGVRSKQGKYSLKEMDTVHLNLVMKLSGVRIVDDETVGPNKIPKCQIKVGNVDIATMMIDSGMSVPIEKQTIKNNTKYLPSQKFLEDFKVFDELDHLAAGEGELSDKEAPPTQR
Assay: thermal shift assay
Assay type: binding
Details: read-out: Tm increase at 10 mM

CN(C)C(=N)NCCC[C@H](N)C(=O)O [aDMA]
ΔTm at 10000 µM: 0.9 °C

Reference: paper doi:10.1101/2021.10.25.465661v1 (biorxiv, 2021)
